Tests used:
Assay type in all cases: functional
Mus musculus [1] = assay: Analgesic activity by writhing test in mice after subcutaneous administration; settings: sc
Mus musculus [2] = assay: Analgesic activity by writhing test in mice after peroral administration; settings: po
Mus musculus [3] = assay: Analgesic activity by writhing test in mice after intraveneous administration; settings: iv

Row | Compound | ED50 (Mus musculus [1]) | ED50 (Mus musculus [2]) | ED50 (Mus musculus [3])
1 | CN(C)CCO[C@@H](c1ccccc1)c1ccnn1C | 127 mg/kg | 67 mg/kg | 28 mg/kg
2 | CN(C)CCO[C@H](c1ccccc1)c1ccnn1C | 21 mg/kg | 37 mg/kg | 13 mg/kg
3 | CN(C)CCOC(c1ccccc1)c1ccnn1C (racemic) [CIZOLIRTINE] | 70 mg/kg | 56 mg/kg | 16 mg/kg
4 | O=C([O-])Cc1ccccc1Nc1c(Cl)cccc1Cl.[Na+] [DICLOFENAC SODIUM] |  | 87 mg/kg | 
